The text below walks through data of US11746102B2, “Polymorphs of selinexor” (Karyopharm Therapeutics Inc., priority 2014, dated 2023).

Each structure is given as a SMILES string.

Format in all cases: physicochemical
Data set [1] can be described thus: Particle size analysis (Malvern MS2000, volume-based). As to conditions: for d10: 10% of total particle volume no larger than this size, 0.1% lecithin in Isopar G dispersant; for d50: 50% of total particle volume no larger than this size; for d50 / d90 / D[4,3] Volume weighted mean: lecithin in Isopar G dispersant; for d90: 90% of total particle volume no larger than this size; for D[4,3] Volume weighted mean: in µm; for Characteristic of the particle size distribution: overlay of particle size distributions. The source says:
Particle size data was acquired using a Malvern Instruments MS2000 equipped with a Hydro2000 μP dispersion unit. Data was collected and analyzed using Mastersizer 2000 v 5.60 software, using volume-based measurements. NIST-traceable glass beads were used as the reference standard.
Details of the method conditions used to analyze particle size are listed below: • Sample refractive index: 1.596 • Sample absorption: 0.001 • Dispersant: 0.100 (w/v) Lecithin in Isopar G • Dispersant refractive index: 1.42 • Pump speed: 2100 rpm • Recirculation time: 2 minutes • Sample measurement time: 30 sec. • Background measurement time: 30 sec. • Model: general purpose • Sensitivity: normal • Particle shape: irregular.
One particle size measurement of each lot of selinexor described in Examples 1-6 was collected using the particle size method conditions described above. Table 4 provides sample information and particle size analysis data for the indicated lot of selinexor under the particle size method analysis conditions described above. FIGS. 5A-5P are particle size distribution graphs and show the particle size distribution of the sample corresponding to the indicated lot of selinexor under the particle size method analysis conditions described above.

Data set [2] can be described thus: Polymorphism studies (cooling, slow evaporation, maturation; XRPD). As to conditions: 8 days maturation RT/50° C., solids analysed by XRPD. How it is done: Samples found as clear solutions at −20° C. were placed for slow evaporation at RT using a 25-gauge syringe needle(s) in the septum of the vial. • The solid suspensions observed in 100 volumes of the relative solvent systems at the end of the solubility assessment were placed for 8 days maturation cycling between RT and 50° C. (cycling 4 hours at RT; 4 hours at 50° C.). After the maturation, the solids were recovered and the supernatants were placed for slow evaporation. All the solids obtained by these processes were analyzed by XRPD.

Data set [3] can be described thus: Competitive slurry experiment (Form A, Form C, seed of Form B). As to conditions: about 1:1 Form A and Form C with Form B seed; matured at 5, 25, 50° C. in ethyl acetate, 30% IPA:70% water, 30% ethanol:70% water; 72 hours and 1 week; in acetonitrile the solvate formed. How it is done:
In a competitive slurry experiment, approximately 1:1 mixtures of Form A and Form C were prepared. The mixtures were then stirred with a seed of Form B (about 5% by weight of the mixture of Form A and Form C). The produced systems were matured at 5° C., 25° C. and 50° C. under stirring in acetonitrile, ethyl acetate, 30% IPA:70% water and 30% ethanol:70% water. The systems were analyzed by XRPD at two different time points: 72 hours and 1 week.
Form D was observed by maturation in acetonitrile. This experiment confirmed Form A as the stable form, compared to Form B and Form C, under the conditions investigated. The presence of acetonitrile led to solvate formation at all of the temperatures investigated.

Data set [4] can be described thus: Stability of Form A on exposure to humidity/temperature. Here is the method:
A comprehensive polymorphism assessment of selinexor was performed in a range of different solvents, solvent mixtures and under a number of experimental conditions based on the solubility of selinexor. Three anhydrous polymorphs of selinexor were observed by XRPD investigation, designated Form A, Form B and Form C.

Data set [5] can be described thus: Solubility assessment (visual) of selinexor in solvents and solvent mixtures. As to conditions: for Solubility: starting Form A.

For `O=C(/C=C\n1cnc(-c2cc(C(F)(F)F)cc(C(F)(F)F)c2)n1)NNc1cnccn1` [Lot No. 1341-AK-109-2], in data set [1] (listed as 1341-AK-109-2), the d10 turned out to be 2.815 μm, the d50 was determined as 10.423 μm, the d90 is given as 89.782 μm and the “D[4,3] Volume weighted mean” value was 32.779. Moreover, in data set [1] (listed as 1341-AK-109-2), the “Characteristic of the particle size distribution” value (“Characteristic” below) is “distinctly bimodal”.
As to `O=C(/C=C\n1cnc(-c2cc(C(F)(F)F)cc(C(F)(F)F)c2)n1)NNc1cnccn1` [Lot No. PC-14-009], in data set [1] (listed as PC-14-009), the d10 was 9.665 μm, the d50 worked out at 24.406 μm, the d90 was found to be 68.445 μm and the “D[4,3] Volume weighted mean” value is 32.557. Further, in data set [1] (listed as PC-14-009), the “Characteristic” value is on record as “more a unimodal characteristic”.
Consider `O=C(/C=C\n1cnc(-c2cc(C(F)(F)F)cc(C(F)(F)F)c2)n1)NNc1cnccn1` [Lot No. 1405463], for which, in data set [1] (listed as 1405463), the d10 is reported as 12.062 μm, the d50 was 27.653 μm, the d90 was determined as 64.876 μm and the “D[4,3] Volume weighted mean” value was determined as 33.740.
For the compound `O=C(/C=C\n1cnc(-c2cc(C(F)(F)F)cc(C(F)(F)F)c2)n1)NNc1cnccn1` [Lot No. 1339-BS-142-2], in data set [1] (listed as 1339-BS-142-2), the d10 is recorded as 6.088 μm, the d50 is 14.468 μm, the d90 was determined as 33.936 μm and the “D[4,3] Volume weighted mean” value is 20.889. Besides, the “Characteristic” value in data set [1] (listed as 1339-BS-142-2) is “more a unimodal characteristic”.
As for `O=C(/C=C\n1cnc(-c2cc(C(F)(F)F)cc(C(F)(F)F)c2)n1)NNc1cnccn1` [Lot No. PC-14-005], the Minor tertiary mode entry in data set [1] is “approximately 400 μm”. Further, in data set [1] (listed as PC-14-005), the d10 was found to be 6.363 μm, the d50 is listed as 18.345 μm, the d90 worked out at 86.906 μm and the “D[4,3] Volume weighted mean” value is on record as 36.720.
Consider `O=C(/C=C\n1cnc(-c2cc(C(F)(F)F)cc(C(F)(F)F)c2)n1)NNc1cnccn1` [Lot No. 1339-BS-142-1], for which, in data set [1] (listed as 1339-BS-142-1), the d10 came to 4.978 μm, the d50 worked out at 11.969 μm, the d90 was found to be 28.331 μm and the “D[4,3] Volume weighted mean” value was 16.614. Besides, the “Characteristic” value in data set [1] (listed as 1339-BS-142-1) was “more a unimodal characteristic”.
`O=C(/C=C\n1cnc(-c2cc(C(F)(F)F)cc(C(F)(F)F)c2)n1)NNc1cnccn1` [Lot No. PC-14-008]: in data set [1] (listed as PC-14-008), the d10 turned out to be 7.658 μm, the d50 turned out to be 18.290 μm, the d90 worked out at 42.616 μm and the “D[4,3] Volume weighted mean” value was 22.451. Moreover, in data set [1] (listed as PC-14-008), the “Characteristic” value is recorded as “more a unimodal characteristic”.
In the case of `O=C(/C=C\n1cnc(-c2cc(C(F)(F)F)cc(C(F)(F)F)c2)n1)NNc1cnccn1` [Form A], the “Stability of the form under solvent-based experimentation” value in data set [2] is “stable in most of the conditions investigated”. For the same compound, the “Relative stability of forms in competitive slurry” value in data set [3] is recorded as “stable anhydrous form”. The Physico-chemical stability result in data set [4] (exposed for 4 weeks to 25° C./97% relative humidity (RH)) and in data set [4] (exposed for 4 weeks to 40° C./75% RH) was “stable” throughout.
On to `O=C(/C=C\n1cnc(-c2cc(C(F)(F)F)cc(C(F)(F)F)c2)n1)NNc1cnccn1` [Lot No. 1305365], for which, in data set [1] (listed as 1305365), the d10 was 4.905 μm, the d50 is on record as 14.268 μm, the d90 amounted to 75.098 μm and the “D[4,3] Volume weighted mean” value is 34.740.
Regarding `O=C(/C=C\n1cnc(-c2cc(C(F)(F)F)cc(C(F)(F)F)c2)n1)NNc1cnccn1` [Selinexor, (Z)-3-(3-(3,5-bis(trifluoromethyl)phenyl)-1H-1,2,4-triazol-1-yl)-N′-(pyrazin-2-yl)acrylohydrazide], the Solubility result in data set [5] (20% MeCN:80% Water, volumes of solvent) is given as “Not dissolved in 100 v”; in data set [5] (40% MeCN:60% Water, volumes of solvent), “Not dissolved in 100 v”; in data set [5] (60% MeCN:40% Water, volumes of solvent) it was “Dissolved in 50 v”; in data set [5] (80% MeCN:20% Water, volumes of solvent) it was “Dissolved in 30 v”; in data set [5] (90% MeCN:10% Water, volumes of solvent) it was “Dissolved in 30 v”; in data set [5] (Acetonitrile, volumes of solvent (1 volume in μL = sample mg), assessed at 50° C. and RT) it was “Dissolved in 70 v”. Moreover, the “Solubility (visual)” value was “soluble” in data set [5] (IPA:water mixtures having up to 60% water); “soluble” in data set [5] (acetonitrile:water mixtures having up to 40% water); “not soluble” in data set [5] (heptane, 1,2-dichloroethane, toluene, cumene, diisopropylether, water and isooctane, 5 to 100 volumes). Besides, the “Share of the solvent systems investigated in which soluble” value in data set [5] (thirty solvents and solvent mixtures, 50° C./RT) is given as “about 60 % of the solvent systems investigated”.
